Experimental findings from patent publication US10519116B2, “Water-soluble pyrazole derivatives as corrosion inhibitors” (Ecolab USA Inc., priority 2015, dated 2019) are described below.

Values after ≈ are worked out from the molar mass of the structure shown.

A short description of data set [1]: Copper corrosion rate by linear polarization resistance measurements. The following applies: copper coupons, 5 ppm inhibitor, pH 7.0, 45° C.; for No FRC Corrosion Rate: absence of bleach, average over 24 hour period; for 1 ppm FRC Corrosion Rate: bleach added to keep FRC at 1 ppm. The method, then: The corrosion rate of copper in the presence of (1H-pyrazol-1-yl)methanol, (3,5-dimethyl-1H-pyrazol-1-yl)methanol, (3,5-dimethyl-1H-pyrazol-1-yl)(phenyl)methanol, 1-(3,5-dimethyl-1H-pyrazol-1-yl)ethan-1-ol, 2-(1H-pyrazol-1-yl)ethan-1-ol, 3-phenyl-1H-pyrazole, 4-chloro-3,5-dimethyl-1H-pyrazole, and 3,5-dimethylpyrazole was determined using linear polarization resistance measurements. In addition, the corrosion rate of copper in the presence of pyrazole, 1-ethyl-1H-pyrazole, and tolyltriazole was determined using linear polarization resistance measurements. (1H-Pyrazol-1-yl)methanol, (3,5-dimethyl-1H-pyrazol-1-yl)methanol, (3,5-dimethyl-1H-pyrazol-1-yl)(phenyl)methanol, 4-chloro-3,5-dimethyl-1H-pyrazole, and 1-(3,5-dimethyl-1H-pyrazol-1-yl)ethan-1-ol were prepared by Applicants. Pyrazole, 3,5-dimethylpyrazole, 2-(1H-pyrazol-1-yl)ethan-1-ol, and 1-ethyl-1H-pyrazole were purchased from TCI America. 3-Phenyl-1H-pyrazole and tolyltriazole were purchased from Sigma-Aldrich (St. Louis, Mo.).
For each experiment, cylindrical copper coupons pre-polished using SIC 600 paper and fitted on a Pine rotator were immersed in a solution of corrosion inhibitor. The test solution comprised 470 ppm calcium, 230 ppm magnesium, 590 ppm chloride, 260 ppm sulfate, and 100 ppm alkalinity, as CaCO3. The pH of the test water was maintained at 7.0 using carbon dioxide, and the water temperature was maintained at 45° C. throughout the experiment.
The copper samples were immersed in 1 liter electrochemical cells comprising a 5 ppm inhibitor solution, and the Rp (polarization resistance) was recorded over a 24 hour period. The analysis was conducted using the following testing conditions: Initial E: −0.02V; Final E: +0.02V; Scan rate: 0.5 mV/s; Sample period: 1 second; Repeat time: 15 minutes; Sample area: 5 cm^2; Density: 8.92 g/cm^3; Copper Eq. Weight: 63.54 g; and Initial delay: 30 seconds.
Next, the copper samples were exposed to 1 ppm FRC by adding a few drops of 4% bleach solution to the electrolyte solution. After the FRC reached 1 ppm, the copper samples were analyzed. Throughout the analysis, the bleach solution was added intermittently to maintain the FRC at 1 ppm. The Rp in the absence and presence of bleach was collected and analyzed, and the average corrosion rate was calculated and recorded in Table 1. Corrosion rates were calculated in mils per year (mpy). FIGS. 1-3 display data plots for compounds 1, 3, 5, 6, and 9.

A short description of data set [2]: Turbidity of 2% aqueous solutions at various pH levels (solubility). It counts as physicochemical. The following applies: judged from turbidity at a wide range of pH levels. The protocol: Solutions comprising (1H-pyrazol-1-yl)methanol and 3,5-dimethylpyrazole at various pH levels were prepared by dissolving the corresponding pyrazole (2 grams) in deionized water (98 grams). The solutions were adjusted to the desired pH by adding dilute sulfuric acid or aqueous sodium hydroxide (1 N). The turbidity of each solution was measured using a HACH 2100Q Portable Turbidimeter.

In data set [3] the test system is Pseudokirchneriella subcapita. Put plainly: Chronic 72-Hour Green Algal Growth Test. It counts as in vivo. Conditions: 72-hour chronic green algal growth test. The protocol:
(§1) The aquatic toxicity of (1H-pyrazol-1-yl)methanol toward a variety of species was analyzed. (1H-pyrazol-1-yl)methanol had lower aquatic toxicity than many commonly used corrosion inhibitors.

A short description of data set [4]: in vivo. Conditions: in vivo; 96-hour definitive toxicity test. The method, then: as §1
The test system of data set [5] is Oncorhynchus mykiss. Put plainly: in vivo. The following applies: 96-hour definitive toxicity test. The protocol:
as §1

Data set [6] in a line: Ceriodaphnia dubia 48-Hour Definitive Toxicity Test. It counts as in vivo. Conditions: Ceriodaphnia dubia, in vivo, other: aquatic exposure (compound in the test water). The protocol:
as §1

Data set [7] concerns Ceriodaphnia dubia. The description is as above. Format: in vivo. The protocol:
as §1

As to `Cc1cc(C)n(CO)n1` [Compound 5, (3,5-dimethyl-1H-pyrazol-1-yl)-methanol], in data set [1], the “No FRC Corrosion Rate” value was 0.0197 mpy and the “1 ppm FRC Corrosion Rate” value worked out at 0.0228 mpy.
Turning to `OCCn1cccn1` [Compound 4, 2-(1H-pyrazol-1-yl)ethan-1-ol], in data set [1], the “No FRC Corrosion Rate” value is 0.0212 mpy and the “1 ppm FRC Corrosion Rate” value was 0.2739 mpy.
Consider `Cc1cc(C)[nH]n1` [Compound 6, 3,5-dimethylpyrazole], for which the water solubility entry in data set [2] is “water soluble”. Further, in data set [1], the “No FRC Corrosion Rate” value worked out at 0.0396 mpy and the “1 ppm FRC Corrosion Rate” value is listed as 0.0599 mpy.
Turning to `OCn1cccn1` [Compound 1, (1H-pyrazol-1-yl)methanol], in data set [3], 3.83 µg/mL (≈ 39 µM) corresponded to half-maximal inhibition (IC50) and the “NOEC (survival)” value was 2.5 mg/L. For the same compound, the LC50 (in general, the concentration lethal to half of the exposed cells or organisms) at 96 h in data set [4] was over 100 µg/mL. In data set [5], the LC50 was over 100 µg/mL and the “NOEC (survival)” value was 50 mg/L. Also, in data set [6], the LC50 at 48 h stood at 31.5 µg/mL (≈ 321 µM). Further, the “NOEC (survival)” value in data set [7] is on record as 13 mg/L. Besides, in data set [2], the water solubility entry was “water soluble”. In data set [1], the “No FRC Corrosion Rate” value is on record as 0.0057 mpy and the “1 ppm FRC Corrosion Rate” value is 0.0296 mpy. In addition, in data set [1] (listed as (1H-pyrazol-1-yl)methanol), the “No FRC Corrosion Rate” value worked out at 0.0057 mpy.
In the case of `Cc1cc(C)n(C(O)c2ccccc2)n1` (centres unmarked) [Compound 2, (3,5-dimethyl-1H-pyrazol-1-yl)(phenyl)methanol], in data set [1], the “No FRC Corrosion Rate” value amounted to 0.0043 mpy and the “1 ppm FRC Corrosion Rate” value is 0.0479 mpy.
The like results for `Cc1cc(C)n(C(C)O)n1` (centres unmarked) [Compound 3, 1-(3,5-dimethyl-1H-pyrazol-1-yl)ethan-1-ol] were, in that order, 0.0036 mpy and 0.0142 mpy.
Regarding `c1ccc(-c2cc[nH]n2)cc1` [Compound 8, 3-phenyl-1H-pyrazole], in data set [1], the “No FRC Corrosion Rate” value amounted to 0.0039 mpy and the “1 ppm FRC Corrosion Rate” value came to 0.0916 mpy.
Take `CCn1cccn1` [Compound 10, 1-ethyl-1H-pyrazole, reference compound]: in data set [1], the “No FRC Corrosion Rate” value stood at 0.0345 mpy and the “1 ppm FRC Corrosion Rate” value is given as 0.5932 mpy.
The like results for `Cc1n[nH]c(C)c1Cl` [Compound 7, 4-chloro-3,5-dimethyl-1H-pyrazole] were, in that order, 0.0025 mpy and 0.0212 mpy.
With `c1cn[nH]c1` [Compound 9, Pyrazole], in data set [1], the “No FRC Corrosion Rate” value was determined as 0.4232 mpy and the “1 ppm FRC Corrosion Rate” value is 0.1666 mpy.
On to “Tolyltriazole [Compound 11, reference compound]”, for which, in data set [1], the “No FRC Corrosion Rate” value is 0.0214 mpy and the “1 ppm FRC Corrosion Rate” value amounted to 0.0995 mpy.
